{
  "source": "patent US20180110743A1",
  "about": "“COMPOSITIONS AND METHODS FOR TREATING HEPATOCELLULAR CARCINOMA” (Northwestern University, priority 2015, published 2018)",
  "key": {"MCF-7/ADR": {"test_system": "MCF-7/ADR", "experiment": "Growth inhibition IC50 in multidrug-resistant vs parental cells (resistance factor), MCF-7/ADR", "assay_type": "cell-based", "details": "ratio of IC50 in MCF-7/ADR to sensitive parental cells", "method": "(§1) To address this point, the IC50 of MEAN in cell lines with or without activated p-glycoprotein were compared based on the rationale that if an agent is a substrate, its IC50 (growth inhibition in this case) will increase substantially in cells with activated p-glycoproteins (multi-drug resistant cells). Three separate experiments were carried out to determine the values of IC50, as mean±standard deviation (μM), and the inhibition rates of each concentration of compounds were tested in triplicate. The resistance factor (RF) was calculated as the ratio of the IC50 value of the multidrug-resistant cells to that of the corresponding sensitive parental cells.\n(§2) IC50 of MEAN and reference compounds, doxorubicin and vincristine (VCR), were evaluated in three MDR expressing sublines: K562/ADR, MCF-7/ADR, and KB/VCR developed from resistance to Adriamycin (ADR) (FIG. 4C). For each of these cell lines, the RFs were measured to indicate the anti-MDR properties of the compounds. The resistance factor for doxorubicin in K562/ADR and MCF-7/ADR sublines and for vincristine in the KB/VCR subline were 74.1, 54.0, and 51.2."}, "K562/ADR": {"test_system": "K562/ADR", "experiment": "Growth inhibition IC50 in multidrug-resistant vs parental cells (resistance factor), K562/ADR", "assay_type": "cell-based", "details": "ratio of IC50 in K562/ADR to sensitive parental cells", "method": "as §1, §2"}, "[1]": {"experiment": "Toxicity in treated xenograft mice: body weight, behavior, eating, stool", "assay_type": "in vivo", "details": "15 mg/kg each agent, 5 days on and 2 days off, six weeks", "method": "FIG. 3. Toxicity induced by treatment of MEAN, sorafenib or a combination of both were measured against vehicle treated group through monitoring body weight changes throughout treatment course (A) and detecting the serum levels of liver enzymes at the experimental end point (B). The recovery of liver enzymes days after experimental end point (42nd day). n=10. a: each group vs Vehicle, b: sorafenib vs MEAN, c: M+S vs MEAN. *: p<0.05, **: p<0.01, Sorafenib vs M+S: has no difference.\n(§3) HepG2-luc and Huh7-luc xenograft studies of efficacy and toxicity: Male nu/nu (nude) mice (18-20 g at experiment initiation) were maintained at the vivarium of Zhejiang University in a pathogen-free unit, under a 12-hour light/dark cycle. […] Images were collected and analyzed with Living Image software (Slidebook 4.1, Denver, Colo.). Tumor volumes were determined twice weekly by mechanically measuring the length (a) and width (b), with volume=ab^2/2. Tumor weights were measured at the experimental end point, and statistical analysis was performed using Student's t test.\nTo determine whether the combinational treatment by MEAN and sorefenib could increase toxicity compared to those caused by monotherapy, the toxicity induced by the treatment with either agent alone and in combination was evaluated in treated animals. […]"}, "TXNIP [2]": {"test_system": "TXNIP", "experiment": "Western blot of treated xenograft tumor tissue, TXNIP", "assay_type": "in vivo, mice", "details": "Huh7 and HepG2 tumors, end of 42 day treatment", "method": "(§4) FIG. 6. […] The intensity of vehicle is set at 1 and ratios of treatment/vehicle are plotted in each quantitative graph.\n(§5) Cells or tumor chunks were lysed with RIPA lysis buffer (Beyotime Biotechnology, Jiangsu, China) containing 1% Halt™ Protease and Phosphatase Inhibitor Cocktail (100X) (Thermo Fisher Scientific). 20 ug of total protein per lanewere separated by 10% SDS-PAGE gels and transferred to polyvinylidene difluoride membranes (Millipore, Bedford, Mass.), and blocked with 1% BSA in TBS-Tween 20 (0.05%, v/v) for 1 h at room temperature. The membrane was incubated with primary antibody overnight at 4° C. Antibodies for c-Myc and GAPDH were obtained from Cell Signaling Technology (Beverly, Mass.), and TXNIP, SHP-1, and SIRT1 were obtained from Abcam (Cambridge, Mass.). After washing, the membrane was incubated with the appropriate horseradish peroxidase-conjugated secondary antibody (1:3000; Eptmomics) for 1 h. Blots were visualized by ECL-associated fluorography (Millipore). Relative band intensity was quantified using the ImageJ software to determine c-myc, TXNIP, SHP-1, and SIRT1 levels."}, "SHP-1 [3]": {"test_system": "SHP-1", "experiment": "Western blot of treated xenograft tumor tissue, SHP-1", "assay_type": "in vivo, mice", "details": "Huh7 and HepG2 tumors, end of 42 day treatment", "method": "as §4, §5"}, "[4]": {"experiment": "Serum ALT and AST measurement in treated mice", "assay_type": "in vivo", "details": "42nd day of treatment, 15 mg/kg each agent, vs vehicle", "method": "Blood samples were collected from each mouse at the end of the 42th day. Serum alanine aminotransferase aspartate (ALT) and aspartate aminotransferase (AST) were measured with an automated biochemical analyzer (DRI-CHEM 4000ie, FUJIFILM).\nTo determine whether the combinational treatment by MEAN and sorefenib could increase toxicity compared to those caused by monotherapy, the toxicity induced by the treatment with either agent alone and in combination was evaluated in treated animals. Toxicity was assessed by periodic body weight, mice behavior (grooming), eating, stool consistency, and serum liver enzymes levels (alanine aminotransferase, ALT, and aspartate aminotransferase, AST) at the experimental end points. […] This increase is reversible within 2 weeks of the treatment withdrawal (FIG. 3C)."}, "Huh7-luc xenograft": {"test_system": "Huh7-luc xenograft", "experiment": "Huh7-luc xenograft tumor growth in nude mice", "assay_type": "in vivo", "details": "15 mg/kg each agent, IP, 5 days-on and 2 days-off for 42 days", "method": "(§6) FIG. 1. MEAN inhibits Huh7-luc xenograft tumor growth more potently than sorefenib in nude mice. Ten days after inoculation of 10^7 tumor cells subcutaneously, mice were treated with MEAN (15 mg/kg), sorafenib (15 mg/kg), or MEAN and sorafenib in combination at 15 mg/kg each, or vehicle through IP at a schedule of 5 days-on and 2 days-off for 42 days. The tumor growths were measured by whole mount imaging of luciferin florescence (representative images) (A) photon counts biweekly (B) and photon count at end of the experiment, day 42th (C), by volume (D), and by tumor weight at the experimental end point (E). Statistical analyses using t test are shown in (C and E), where *=p<0.5 and **=p<0.01. Where there is not black bar indicates p>0.5 (n=5).\nas §3, with “test. […]” for “test.”"}, "HepG2-luc xenograft": {"test_system": "HepG2-luc xenograft", "experiment": "HepG2-luc xenograft tumor growth in nude mice", "assay_type": "in vivo", "details": "15 mg/kg each agent, IP, 5 days-on and 2 days-off for 42 days", "method": "as §6, with “FIG. 2.” for “FIG. 1.”, “inhibits HepG2-luc” for “inhibits Huh7-luc”\nas §3, with “test. […]” for “test.”"}, "HCC": {"test_system": "HCC", "details": "cited from earlier work"}, "SIRT1 [5]": {"test_system": "SIRT1", "experiment": "Western blot of treated xenograft tumor tissue, SIRT1", "assay_type": "in vivo, mice", "details": "Huh7 and HepG2 tumors, end of 42 day treatment", "method": "as §4, §5"}, "c-myc [6]": {"test_system": "c-myc", "experiment": "Western blot of treated xenograft tumor tissue, c-myc", "assay_type": "in vivo, mice", "details": "Huh7 and HepG2 tumors, end of 42 day treatment", "method": "as §4, §5\nTo evaluate whether the gene expression changes in response to MEAN is cell type specific, another HCC cell line, Huh7 was also examined for the corresponding gene expression changes upon the treatment by MEAN. […]"}, "KB/VCR": {"test_system": "KB/VCR", "experiment": "Growth inhibition IC50 in multidrug-resistant vs parental cells (resistance factor), KB/VCR", "assay_type": "cell-based", "details": "ratio of IC50 in KB/VCR to sensitive parental cells", "method": "as §1, §2"}, "TXNIP [7]": {"test_system": "TXNIP", "experiment": "Expression in treated HCC cells in culture, TXNIP", "assay_type": "cell-based, human", "details": "treated cells in vitro", "method": "as §5"}, "c-myc [8]": {"test_system": "c-myc", "experiment": "RNA array analysis of treated HepG2 cells", "assay_type": "cell-based, human", "details": "20 μM for 6 hours, vs DMSO", "method": "RNA expression analysis was performed by GeneChip® PrimeView™ Human Gene Expression Array. Initially, genes were identified as being differentially expressed on the basis of a statistical significance (P <0.05) and 1.5-fold change (up or down) in expression levels in each comparison.\nThe choice of the treatment dose was based on the PK analyses (supplemental material) that the serum concentration of MEAN is around 20 uM approximately 6 hours after injection. Furthermore a relatively short duration of treatment was designed to catch the more primary cellular responses at the early stage of the treatment. GeneChip® PrimeView™ Human Gene Expression Array was used in triplicates to quantify RNA extracted from treated HepG2 cells."}, "SHP-1 [9]": {"test_system": "SHP-1", "experiment": "Western blot of treated HCC cells in culture, SHP-1", "assay_type": "cell-based, human", "details": "HepG2 and Huh7 cells in culture", "method": "as §5"}, "c-myc [10]": {"test_system": "c-myc", "experiment": "Western blot of treated HCC cells in culture, c-myc", "assay_type": "cell-based, human", "details": "HepG2 and Huh7 cells; less than 10 uM (FIG. 5B and D)", "method": "as §5"}, "SIRT1 [11]": {"test_system": "SIRT1", "experiment": "Western blot of treated HCC cells in culture, SIRT1", "assay_type": "cell-based, human", "details": "HepG2 and Huh7 cells", "method": "as §5"}, "HepG2 cells": {"test_system": "HepG2 cells", "experiment": "Cell cycle profiling by Dapi staining and flow cytometry", "assay_type": "cell-based, human", "details": "5 uM for 24 hours", "method": "After treatment, cells were washed with PBS two times and centrifugation then, re-suspended in PBS (Ca and Mg free). 3.0m1 ice cold 95% ethanol was added to the cell pellet in a dropwise manner while vortexing and then was incubated for 30 minutes. The volume was brought up to 15 mL with PBS and the cells was pelleted and washed one time with PBS via centrifugation. Cells were resuspended in 1 ml of 10 ug/ml Dapi in PBS with 0.1% TritonX-100 to a concentration of 1×10^6cells/ml and incubated for 30 minutes on ice. The samples were then analyzed through flowcytometery and the DNA contents of the cellular population were sorted and evaluated.\nAdditional evidence supporting the differences between MEAN and AMN came from their differential impact on cell cycle."}},
  "note": "Like-named read-outs stand apart in the source and are kept apart here.",
  "data": [
    {"compound": "COc1cccc2c1C(=O)c1c(O)c3c(c(O)c1C2=O)C[C@@](O)(C(=O)CO)C[C@@H]3O[C@H]1C[C@H](N)[C@H](O)[C@H](C)O1", "note": "[doxorubicin, reference compound]", "values": [
      {"measurement": "resistance factor (RF)", "setting": "MCF-7/ADR", "result": 54.0},
      {"measurement": "resistance factor (RF)", "setting": "K562/ADR", "result": 74.1}
    ]},
    {"compound": "CNC(=O)c1cc(Oc2ccc(NC(=O)Nc3ccc(Cl)c(C(F)(F)F)c3)cc2)ccn1", "note": "[sorafenib, reference compound]", "values": [
      {"measurement": "body weight change", "setting": "[1]", "result": "did not significantly alter body weight"},
      {"measurement": "TXNIP protein level in tumors", "setting": "TXNIP [2]", "result": "does not significantly change"},
      {"measurement": "SHP-1 protein level in tumors", "setting": "SHP-1 [3]", "result": "does not significantly change"},
      {"measurement": "serum liver enzymes (ALT and AST) at experimental end point", "setting": "[4]", "result": "more significantly increased"},
      {"measurement": "tumor growth compared with vehicle (luciferase emission, tumor volume, tumor weight)", "setting": "Huh7-luc xenograft", "result": "significant tumor growth retardation"},
      {"measurement": "tumor growth compared with vehicle (luciferase emission, tumor volume, tumor weight)", "setting": "HepG2-luc xenograft", "result": "significant tumor growth retardation"},
      {"measurement": "median overall survival", "setting": "HCC; Asian study", "result": 6.5, "unit": "months"},
      {"measurement": "median overall survival", "setting": "HCC; SHARP study", "result": 10.7, "unit": "months"},
      {"measurement": "SIRT1 protein level in tumors", "setting": "SIRT1 [5]", "result": "does not significantly change"},
      {"measurement": "c-myc protein level in tumors", "setting": "c-myc [6]", "result": "does not significantly change"}
    ]},
    {"compound": "CC[C@]1(O)C[C@H]2CN(CCc3c([nH]c4ccccc34)[C@@](C(=O)OC)(c3cc4c(cc3OC)N(C=O)[C@H]3[C@@](O)(C(=O)OC)[C@H](OC(C)=O)[C@]5(CC)C=CCN6CC[C@]43[C@@H]65)C2)C1", "note": "[vincristine, reference compound]", "values": [
      {"measurement": "resistance factor (RF)", "setting": "KB/VCR", "result": 51.2}
    ]},
    {"compound": "Amonafide [AMN, reference compound]", "values": [
      {"measurement": "TXNIP expression", "setting": "TXNIP [7]", "result": "significantly increase"},
      {"measurement": "c-myc RNA expression level", "setting": "c-myc [8]", "result": "significantly reduce"},
      {"measurement": "SHP-1 protein level", "setting": "SHP-1 [9]", "result": "does not significantly impact"},
      {"measurement": "c-myc (myc) protein level", "setting": "c-myc [10]", "result": "does not significantly reduces"},
      {"measurement": "SIRT1 protein level", "setting": "SIRT1 [11]", "result": "not significantly changed"},
      {"measurement": "cell cycle profile (DNA content)", "setting": "HepG2 cells", "result": "G2 accumulation with diminishing Gl"}
    ]}
  ]
}
